{"source": "patent EP0364584A1", "about": "“ANTIDOTE FOR ORGANIC PHOSPHORUS COMPOUND POISONING” (priority 1988, dated 1989)", "key": {"[1]": {"test": "Content of the drugs in blood and brain after intramuscular administration (Askew method)", "assay_type": "in vivo, Ratten", "settings": "for concentration at 2 h: 2 St., read-out: Konzentration (µg/g) 2 St. (converted); for concentration at 3 h: 3 St., read-out: Konzentration (µg/g) 3 St.; for concentration at 5 min: read-out: Konzentration (µg/g) 5 min; for concentration at 20 min: read-out: Konzentration (µg/g) 20 min (converted); for concentration at 0.5 h: 30 min, read-out: Konzentration (µg/g) 30 min; for concentration at 1 h: read-out: Konzentration (µg/g) I St.; for concentration at 10 min: IO min, read-out: Konzentration (µg/g) IO min (converted)", "protocol": "Mit Hilfe der Methode von Askew (1956) wurde in der Dynamik der Gehalt des erfindungsgemäßen Arzneimittels im Blut und Gehirn der Tiere untersucht. Die Untersuchungen wurden im Vergleich zum bekannten Präparak TMB-4 vorgenommen. Die Geschwindigkeit des Eindringens beider Präparate ins Blut und deren Konzentration wurden bei der-intramuskulären Einführung in Dosen von 20 ..und 50 mg/kg und der Gehirnspiegel - in einer Dosis von 50 mg/kg bestimmt. […]\nEs wurde festgestellt, daß die Präparate schnell (nach 5 min) von der Einführungsstelle ins Blut eindringen, dabei wurde unabhängig von der Prüfdosis der Präparate deren Maximalgehalt im Blut 20 min nach der Einführung beobachtet, zwar erhöhte die Vergrößerung der Dosis der Präparate bis 50 mg/kg wesentlich deren Konzentrationsniveau während der ganzen Beobachtungsfrist.\nDie im Vergleich zu TMB-4 durchgeführten Untersuchungen haben ergeben, dass während der ersten Stunde der Blutgehalt und das Anwachsen der Konzentrationen beider Präparate gleich waren. […] Die Untersuchungsergebnisse sind in der Tabelle 3 angeführt.\nNach den Ergebnissen der durchgeführten Untersuchungen wurde festgestellt, dass das erfindungsgemässe Arz- neimittel bei der intramuskulären Einführung schnell ins Blut und Gehirn des Tieres eindringt und zum Unterschied von TMB-4 eine längere Zeit im 3lutstrom zirkuliert und von 5 min an bis 4 Stunden Beobachtung im Gehirn in bedeutend grösseren Mengen enthalten ist."}, "[2]": {"test_system": "kardiovaskuläre System und die Atmung", "test": "Effect on cardiovascular system, respiration and muscle", "assay_type": "in vivo"}, "[3]": {"test_system": "Versuchstiere", "test": "Prolonged administration to test animals (blood, urine)", "assay_type": "in vivo", "text": "Nur zu einer späteren Beobachtungsperiode (4 bis 9 Tage) wurde eine unbedeutende Erhöhung der Gesamtleukozytenzahl nachgewiesen. Am 3. Tag trat auch eine geringe Aktivierung der Blutcholinesterase auf, in den nachfolgenden Beobachtungstagen (4 bis 9 Tage) überstieg jedoch die Aktivität des Ferments das Ausgangsniveau nicht.\nDie morpholigischen Untersuchungen der inneren Organe der Versuchstiere legten keine pathologischen Veränderungen im Vergleich zur Kontrolle an den Tag."}, "[4]": {"target": "T1, Azetylcholinesterase des Rattengehirns (Rattus norvegicus, UniProt P37136)", "T1 construct": "Azetyl- und Buty rylcholinesterase des Rattengehirns; from tissue; host or cells: rat brain sections after in vivo dosing", "T1 sequence (P37136 32-614)": "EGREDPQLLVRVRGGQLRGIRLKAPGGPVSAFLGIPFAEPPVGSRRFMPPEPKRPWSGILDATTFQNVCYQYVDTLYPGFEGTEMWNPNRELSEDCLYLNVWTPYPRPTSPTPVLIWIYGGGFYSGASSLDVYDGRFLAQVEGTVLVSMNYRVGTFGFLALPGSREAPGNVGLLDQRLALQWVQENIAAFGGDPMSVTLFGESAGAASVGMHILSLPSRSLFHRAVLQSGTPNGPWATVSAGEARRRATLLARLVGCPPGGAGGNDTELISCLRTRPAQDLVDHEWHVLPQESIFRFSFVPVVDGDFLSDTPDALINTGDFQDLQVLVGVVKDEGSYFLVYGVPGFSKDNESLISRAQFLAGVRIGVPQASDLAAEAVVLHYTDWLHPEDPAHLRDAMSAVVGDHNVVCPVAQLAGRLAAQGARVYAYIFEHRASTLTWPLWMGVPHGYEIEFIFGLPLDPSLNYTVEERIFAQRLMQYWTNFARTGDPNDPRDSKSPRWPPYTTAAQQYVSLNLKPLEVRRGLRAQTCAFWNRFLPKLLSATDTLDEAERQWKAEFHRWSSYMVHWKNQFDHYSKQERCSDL", "test": "Histochemical study of acetylcholinesterase activity in rat brain", "assay_type": "in vivo, Ratten", "text": "(§1) Nach den histochemischen Methoden wurde der Einfluss des erfindungsgemässen Arzneimittels auf die Aktivität der Azetyl- und Buty rylcholinesterase des Rattengehirns untersucht und es wurde gezeigt, dass dieser von der Dosis des Arzneimittels und der Einführungszeit abhängt. […] Die Fermenthemmung wird bis 2 Stunden lang beobachtet, nachher folgt eine unbedeutende Aktivierung der Azetylcholinesterase, die bis 24 Stunden aufrechterhalten bleibt."}, "[5]": {"test_system": "Gehirn der Tiere (Ratten)", "test": "Morphological and histochemical examination of the brain", "assay_type": "in vivo", "settings": "Dosen 5, 20 und 50 mg/kg; no haemorrhages", "protocol": "Der Grad deren Ausgeprägtheit wird etwas höher und länger in den Gehirnstrukturen (3 Tage) bei einer Dosis des erfindungsgemässen Arzneimittels von 50 mg/kg aufrechterhalten, als bei Dosen von 5 und 20 mg/kg. Die Kapillarhyperämie wird durch keine Blutergüsse und Störungen des argyrophilen Gestells der Hirnblutgefässe begleitet. Die morphologische und histochemische Untersuchung des Rattengehirns, denen das erfindungsgemässe Arzneimittel in Dosen von 5, 20 und 50 mg/kg eingeführt wurde, gestattet, die erhaltenen Veränderungen als funktionelle einzuschätzen (die Schwankung der Aktivität der Azetylcholinesterase und der Butyrylcholinesterase, die […] Hyperämie), die von einer deutlichen Neurotropie des Arzneimittels zeugen."}, "[6]": {"test": "Acute toxicity, single administration, rats", "settings": "rat, in vivo, Ratten, read-out: LD50 (mg/kg) und deren zuverlässige Grenzen P = 0,05"}, "[7]": {"test": "Acute toxicity, single administration, dogs", "settings": "dog, in vivo, sc; Hunde, subkutan; read-out: LD50 (mg/kg) und deren zuverlässige Grenzen P = 0,05", "text": "Die Toxizität des erfindungsgemässen Arzneimittels bei der einmaligen Einführung (die akute Toxizität) wurde an geschlechtsreifen Tieren (an Mäusen, Ratten, Katzen, Hunden) bestimmt. Die Analyse der experimentellen Angaben für Mäuse und Ratten wurde nach der Methode der Probit-Analyse nach Litchfield und Wilcoxon, und für Hunde und Katzen nach der Methode der Anreicherung der Frequenz nach Behrens durchgeführt.\nDie Toxizitätsparameter LD50 wurden für Mause bei der intraperitonealen und subkutanen Einführung, für Ratten bei der subkutanen, intramuskulären und enteralen Einführung, für Katzen bei der intramuskulären Einführung und für Hunde bei der subkutanen Einführung bestimmt."}, "[8]": {"target": "T2, Butyrylcholinesterase des Rattengehirns (Rattus norvegicus, UniProt Q9JKC1)", "T2 construct": "from tissue; host or cells: rat brain sections (glia, capillaries) after in vivo dosing", "T2 sequence (Q9JKC1 24-597)": "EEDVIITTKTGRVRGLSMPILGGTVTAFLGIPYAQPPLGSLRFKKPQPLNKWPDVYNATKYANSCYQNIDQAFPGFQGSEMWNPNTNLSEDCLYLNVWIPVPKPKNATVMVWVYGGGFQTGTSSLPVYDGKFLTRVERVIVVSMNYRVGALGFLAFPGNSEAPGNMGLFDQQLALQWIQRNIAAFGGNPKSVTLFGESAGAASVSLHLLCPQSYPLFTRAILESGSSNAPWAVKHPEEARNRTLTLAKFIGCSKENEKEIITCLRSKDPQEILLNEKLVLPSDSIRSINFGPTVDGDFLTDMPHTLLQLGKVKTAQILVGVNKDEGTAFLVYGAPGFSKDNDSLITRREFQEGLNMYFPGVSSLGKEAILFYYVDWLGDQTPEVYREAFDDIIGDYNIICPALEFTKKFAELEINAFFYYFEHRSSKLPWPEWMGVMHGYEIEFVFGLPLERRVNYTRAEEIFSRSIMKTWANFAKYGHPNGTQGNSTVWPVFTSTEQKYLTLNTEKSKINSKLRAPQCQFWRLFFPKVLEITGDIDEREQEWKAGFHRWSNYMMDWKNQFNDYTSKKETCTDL", "test": "Histochemical study of butyrylcholinesterase activity in rat brain", "assay_type": "in vivo, Ratten", "text": "as §1\nEs muss hervorgehoben werden, dass die beobachteten Veränderungen der Aktivität des Ferments von keinem deutlich ausgeprägten Charakter sind."}, "[9]": {"settings": "rat, blood, im, Blut, Dosis 20 mg/kg intramuskulär, Ratten"}, "[10]": {"settings": "rat, blood, im, Blut, Dosis 50 mg/kg intramuskulär, Ratten"}, "[11]": {"settings": "rat, brain, im, Gehirn, Dosis 50 mg/kg intramuskulär, Ratten"}}, "note": "Where two headings read alike, the source gives them in different places.", "data": [{"smiles": "C=CC[n+]1ccccc1C=NO", "note": "[das erfindungsgemässe Arzneimittel, N-Allyl-2-pyridinaldoxiinbromid]", "values": [{"measurement": "Konzentration (µg/g) I St.", "setting": "[1]; Blut, Dosis 50 mg/kg intramuskulär, I St., Ratten", "result": "IO,I"}, {"measurement": "Konzentrationsniveau im Blut im Vergleich zu TMB-4", "setting": "[1]; late time points (printed: 3 und 1 Stunden)", "result": "ungefähr um das Doppelte"}, {"measurement": "concentration at 2 h", "setting": "[1]; [9]", "result": 2.3, "unit": "µg/g"}, {"measurement": "concentration at 3 h", "setting": "[1]; [9]", "result": 0.92, "unit": "µg/g"}, {"measurement": "concentration at 5 min", "setting": "[1]; [9]", "result": 2.95, "unit": "µg/g"}, {"measurement": "concentration at 20 min", "setting": "[1]; [9]", "result": 5.16, "unit": "µg/g"}, {"measurement": "concentration at 0.5 h", "setting": "[1]; [9]", "result": 4.7, "unit": "µg/g"}, {"measurement": "concentration at 1 h", "setting": "[1]; rat, blood, im, Blut, Dosis 20 mg/kg intramuskulär, I St., Ratten", "result": 4.4, "unit": "µg/g"}, {"measurement": "concentration at 10 min", "setting": "[1]; [9]", "result": 4.95, "unit": "µg/g"}, {"measurement": "concentration at 2 h", "setting": "[1]; [10]", "result": 4.6, "unit": "µg/g"}, {"measurement": "concentration at 3 h", "setting": "[1]; [10]", "result": 3.6, "unit": "µg/g"}, {"measurement": "concentration at 5 min", "setting": "[1]; [10]", "result": 16.2, "unit": "µg/g"}, {"measurement": "concentration at 20 min", "setting": "[1]; [10]", "result": 18, "unit": "µg/g"}, {"measurement": "concentration at 0.5 h", "setting": "[1]; [10]", "result": 12.7, "unit": "µg/g"}, {"measurement": "concentration at 10 min", "setting": "[1]; [10]", "result": 19, "unit": "µg/g"}, {"measurement": "Tmax", "setting": "[1]; rat, blood, im, intramuskuläre Einführung, summary statement, read-out: Maximalniveau erreicht nach", "result": "20 to 30", "unit": "min"}, {"measurement": "concentration at 2 h", "setting": "[1]; [11]", "result": 1.12, "unit": "µg/g"}, {"measurement": "concentration at 3 h", "setting": "[1]; [11]", "result": 0.64, "unit": "µg/g"}, {"measurement": "concentration at 5 min", "setting": "[1]; [11]", "result": 2.64, "unit": "µg/g"}, {"measurement": "concentration at 20 min", "setting": "[1]; [11]", "result": 4, "unit": "µg/g"}, {"measurement": "concentration at 0.5 h", "setting": "[1]; [11]", "result": 3.75, "unit": "µg/g"}, {"measurement": "concentration at 1 h", "setting": "[1]; rat, brain, im, Gehirn, Dosis 50 mg/kg intramuskulär, I St., Ratten", "result": 2.06, "unit": "µg/g"}, {"measurement": "concentration at 10 min", "setting": "[1]; [11]", "result": 5.65, "unit": "µg/g"}, {"measurement": "myotrope Wirkung", "setting": "[2]; in vivo", "result": "keine myotrope Wirkung"}, {"measurement": "arterieller Blutdruck", "setting": "[2]; intravenöse Einführung (12 bis 15 mg/kg)", "result": "setzte unbedeutend für eine kürzere Zeit den arteriellen Blutdruck herab"}, {"measurement": "Einfluss auf das kardiovaskuläre System und die Atmung", "setting": "[2]; subkutane Einführung in hohen Dosen (10 und 20 mg/kg)", "result": "keinen Einfluss"}, {"measurement": "Einfluss auf den Bestand des peripheren Bluts", "setting": "[3]; dauernde Anwendung, slight rise of leukocytes at 4 bis 9 Tage", "result": "keinen merklichen Einfluss"}, {"measurement": "Harnbestand", "setting": "[3]; längere Einführung", "result": "veränderte nicht den Harnbestand"}, {"measurement": "Einfluss auf die Aktivität der Azetyl- und Butyrylcholinesterase des Rattengehirns", "setting": "[4]; Dosis 5 mg/kg, histochemical", "result": "keine Abweichung der Fermentaktivität von der Norm"}, {"measurement": "Einfluss auf die Aktivität der Azetylcholinesterase", "setting": "[4]; Dosis 20 mg/kg, except white matter of hemispheres and Formatio reticularis neurons (inhibition 30 min bis 2 Stunden)", "result": "verändert es auch im wesentlichen die Aktivität der Azetylcholinesterase nicht"}, {"measurement": "Einfluss auf die Aktivität der Azetylcholinesterase", "setting": "[4]; Dosis 50 mg/kg, several brain structures, inhibition bis 2 Stunden, then slight activation bis 24 Stunden", "result": "deutlicher ausgeprägte Veränderungen der Azetylcholinesteraseaktivität"}, {"measurement": "Aktivität der Azetylcholinesterase in den Neuronen der Grosshirnrinde", "setting": "[4]; Dosis 20 und 50 mg/kg", "result": "keine Veränderungen der Aktivität der Azetylcholinesterase festgestellt"}, {"measurement": "Histochemische Untersuchungen des Gehirns", "setting": "[5]", "result": "allgemeine unbedeutende Kapillarhyperämie"}, {"measurement": "LD50", "setting": "[6]; ip, intraperitoneal", "result": 135, "unit": "mg/kg"}, {"measurement": "LD50", "setting": "[6]; po, enteral", "result": 260, "unit": "mg/kg"}, {"measurement": "LD50", "setting": "[6]; sc, subkutan", "result": 200, "unit": "mg/kg"}, {"measurement": "LD50", "setting": "[7]", "result": 112, "unit": "mg/kg"}, {"measurement": "Aktivität der Butyrylcholinesterase in den Kapillaren aller Bildungen des Gehirns", "setting": "[8]; bis 2 Tage lang, dose dependent, more marked at 50 mg/kg", "result": "unbedeutende Aktivierung des Ferments"}, {"measurement": "Aktivität der Butyrylcholinesterase in den Nervenkittzellen des Gehirns", "setting": "[8]; in allen untersuchten Konzentrationen", "result": "die Aktivität der Butyrylcholinesterase in den Nervenkittzellen des Gehirns nicht"}]}]}
